Reference: US20170190726A9, “PRODRUG FOR RELEASE OF CISPLATIN AND CYCLOOXYGENASE INHIBITOR” (priority 2013, published 2017)

Key:
IL-6 = test: ELISA of IL-6 in LPS-stimulated RAW 264.7 macrophages; assay type: cell-based, mouse; conditions: for LPS-induced IL-6 production: preventive: pretreatment 10 μM 6 h, then LPS 12 h
Description: (§2) RAW 264.7 cells were plated at a concentration of 10,000 cells/mL in 96 plates and allowed to grow overnight. For preventative anti-inflammatory treatment, Platin-A (10 μM), aspirin (10 μM), cisplatin (10 μM) and an equimolar ratio of cisplatin and aspirin (10 μM each) was incubated with the RAW cells for 6 h. Lipopolysaccharide (LPS) (100 ng/mL) was added and the cells were further incubated for 12 h. For therapeutic anti-inflammatory treatment, LPS (100 ng/mL) was added to the RAW cells and incubated for 6 h. Platin-A (10 μM), aspirin (10 μM), cisplatin (10 μM) and an equimolar ratio of cisplatin and aspirin (10 μM each) was then added to the cells and incubated for 12 h. ELISA was performed on the supernatants against the cytokines interleukin (IL)-6, IL-10, and TNF-α. Briefly, antibody coated plates were blocked with 10% FBS in PBS for 1 h at room temperature followed by 3 washes. RAW cell supernatants were incubated on the plates for 2 h at room temperature. This was immediately followed by washings and sequential incubations with the cytokine-biotin conjugate and streptavidin working solution. Finally, the substrate reagent containing 3,3′,5,5′-tetramethylbenzidine (100 μL) was added to each well, incubated for 15 min, the reaction was stopped by adding 50 μL H2SO4 (0.1 M). The absorbance was recorded at 450 nm using a BioTek Synergy HT well plate reader.

TNF-α = test: ELISA of TNF-α in LPS-stimulated RAW 264.7 macrophages; assay type: cell-based, mouse; conditions: for LPS-induced TNF-α production: preventive: pretreatment 10 μM 6 h, then LPS 12 h
Description: as §2

PC3 cells [1] = test: Apoptosis detection by annexin V/PI assay; assay type: cell-based, Human; conditions: 25 μM, 6 h
Text: High expression of COX-2 is found in various cancers, however, for PCa cell lines as well as tissue, contradictory results exist. We therefore tested anti-proliferative properties of Platin-A on androgen-responsive LNCaP and androgenunresponsive PC3 and DU145 PCa cells that differ in their malignant potentials. […] However, in LNCaP cells, Platin-A activity was better than an equimolar mixture of cisplatin and aspirin. In general, Pt(IV) compounds are less cytotoxic compared to their active Pt(II) form. […] To evaluate whether Platin-A-dependent inhibition of cancer cell proliferation is associated with apoptosis, Alexa Fluor® 488 annexin V/propidium iodide (PI) staining assay was carried out in PC3 cells and the data were analyzed by fluorescence assisted cell sorting. […]
PC3 cells were seeded at a density of 1×10^6 cells/mL on each well of a six well plate and allowed to grow overnight. […] Cell density was determined and cells were resuspended in 1× annexinVbinding buffer to 1×10^6 cells/mL preparing a sufficient volume to have 100 μL per assay. […] After the incubation period, 400 μL of 1× annexin-binding buffer was added to each sample, samples were gently mixed keeping the samples on ice, and the samples were analyzed on the flow cytometer immediately.

LNCaP cells = test: MTT cytotoxicity assay in LNCaP cells; assay type: cell-based, Human; conditions: 72 h
Description: (§1) Human prostate cancer cell lines LNCaP, PC3, and DU145 and RAW 264.7 macrophages were procured from the American type culture collection (ATCC). DU145 cells were grown at 37° C. in 5% CO2 in Eagle's minimum essential medium (EMEM) supplemented with 10% fetal bovine serum (FBS) and 1% penicillin/streptomycin. […] Cells were passed every 3 to 4 days and restarted from frozen stocks upon reaching pass number 20. The cytotoxic behaviors of cisplatin, aspirin, cisplatin+aspirin, and Platin-A were evaluated using the MTT assay against PC3, DU145, LNCaP, and RAW 264.7 cells. […] The cells were treated with different constructs at varying concentrations and incubated for 72 h at 37° C. except for RAW 264.7 macrophages. […] The cells were then treated with 20 μL of MTT (5 mg/mL in PBS) for 5 h. […] Each well was performed in triplicate. […] The IC50 values were reported at +95% confidence intervals.

DU145 cells = test: MTT cytotoxicity assay in DU145 cells; assay type: cell-based, Human; conditions: 72 h
Description: as §1

PC3 cells [2] = test: MTT cytotoxicity assay in PC3 cells; assay type: cell-based, Human; conditions: 72 h
Description: as §1

[3] = therapeutic: LPS activated macrophages then 10 μM for 12 h

Structure (SMILES)	LPS-induced IL-6 production (IL-6)	LPS-induced TNF-α production (TNF-α)	apoptosis induction (annexin V/PI) (PC3 cells [1])	IC50 (LNCaP cells) [µM]	IC50 (DU145 cells) [µM]	levels of IL-6 (IL-6; [3])	levels of TNF-α (TNF-α; [3])	IC50 (PC3 cells [2]) [µM]
CC(=O)Oc1ccccc1C(=O)O [Aspirin, Acetylsalicylic acid]	did not show any preventive action	did not show any preventive action	did not show any changes in healthy PC3 populations	–	–	–	–	–
N.N.[Cl][Pt][Cl] [Cisplatin, Cis-diamminedichloroplatinum(II)]	did not show any preventive action	did not show any preventive action	–	15 ± 1	5 ± 2	did not show any effect	did not show any effect	14 ± 4
